Laboratory results published in US20070298108A1, “Pharmaceutical Formulation” (priority 2004, published 2007).

What was measured:
[1] = Vial study: influence of humidity in a closed container on binary mixtures of losartan potassium form X; format: physicochemical
Method: Storage conditions: Vial study—influence of humidity in a closed container (simulation of packaging)
Testing mixtures are put into vials, exposed to 60% humidity for 18 hours, then closed with rubber stoppers and stored in a thermostatically controlled chamber at temperature of 25° C. (±2° C.) and 60% (±5%) relative humidity.
(§1) Mixtures are tested for up to 5 days in open petri dishes and up to 4 and 9 days in vials, and the following parameters were analysed at intervals of a few days or until the occurrence of significant change: appearance, […], conversion of a polymorph form (detected using powder X-ray diffraction spectroscopy and expressed as the amount of crystalline or amorphous phase different from the starting polymorph).

[2] = Open dish study: constant influence of humidity on binary mixtures of losartan potassium form X; format: physicochemical; conditions: 5 days, 25° C., 60% relative humidity
Method: Storage conditions: Open dish study—constant influence of humidity Testing mixtures are put into open petri dishes and stored in a thermostatically controlled chamber at a temperature of 25° C. (±2° C.) and 60% (±5%) relative humidity
as §1

[3] = vial, 4 days, exposed to 60% humidity 18 hours, closed, 25° C., 60% relative humidity
[4] = vial, 9 days, exposed to 60% humidity 18 hours, closed, 25° C., 60% relative humidity

Appearance ([1]; Initial state): white powder
Form conversion (amount of crystalline or amorphous phase different from the starting polymorph, XRPD) ([1]; Initial state): 0%
Loss on drying ([1]; Initial state): 0.08%
Appearance [1, 3]: white slightly
Form conversion (amount of crystalline or amorphous phase different from the starting polymorph, XRPD) [1, 3]: 5%
Loss on drying [1, 3]: 0.52%
Appearance [1, 4]: white slightly
Form conversion (amount of crystalline or amorphous phase different from the starting polymorph, XRPD) [1, 4]: 100%
Appearance [2]: white slightly
Form conversion (amount of crystalline or amorphous phase different from the starting polymorph, XRPD) [2]: 10%
Loss on drying [2]: 0.93%
SMILES: CCCCc1nc(Cl)c(CO)n1Cc1ccc(-c2ccccc2-c2nnn[n-]2)cc1.[K+] [Not stabilized API, potassium salt of losartan]
